# Results as given in the COVID Moonshot data (paper PMC11187573), “Identification of SARS-CoV-2 Mpro inhibitors through deep reinforcement learning for de novo drug design and computational chemistry approaches” (RSC Medicinal Chemistry, 2024).
# Assays:
# [1] = target: SARS-CoV-2 Main Protease (SARS-CoV-2) (UniProt P0DTD1)
# [2] = target: SARS-CoV-2 Main Protease (SARS-CoV-2) (UniProt P0DTD1); remark: listed apart in the source
SMILES,relative solubility at 20 uM,relative solubility at 100 uM,inhibition ([1]; 20.0 µM) [%],inhibition ([1]; 50.0 µM) [%],inhibition ([2]; 50.0 µM) [%],inhibition ([2]; 20.0 µM) [%],IC50 [1] [nM]
Cc1ccncc1NC(=O)c1ccc(NC(=O)Nc2cccnc2)cc1,1,0.99,3.1,0,-23,,
C=CC(=O)N1CCCN(Cc2ccccc2)CC1,1,1,0,,9.99,0.947,
O=C(c1cc(=O)[nH]c2cc(F)ccc12)N1CCN(S(=O)(=O)c2ccccc2)CC1,0.98,0.99,,0,30.7,12.6,
Cc1nnc(NC(=O)Cc2cccc(Cl)c2F)n1C,1.01,1,,0,-10.8,-12.7,
CCN(CC1COc2ccccc2O1)C(=O)c1cc(=O)[nH]c2ccc([N+](=O)[O-])cc12 (stereo not drawn),1,1,,0,-7.35,2.87,
Cc1cc(CC(=O)Nc2cnccc2C)[nH]n1,1,1,,4.87,0.404,-4.28,
O=C(NCC1COc2ccccc2O1)c1cc(=O)[nH]c2ccc(F)cc12 (stereo not drawn),1,0.79,,16.4,18.6,3.84,
CCCc1cc2c(cc1S(=O)(=O)N1CCN(c3ccccc3)CC1)OCO2,0.91,0.92,,68.3,-17.1,8.44,16000
CCC(=O)Nc1cccc(OC2CC(=O)N2)c1 (stereo not drawn),1.01,1.01,,0,-6.23,-4.99,
CC(C)c1ncncc1NC(=O)C(C)c1cccc(Cl)c1 (stereo not drawn),1.01,1,,1.6,19,6.43,
N#Cc1ncccc1NC(=O)Cc1cccc(Cl)c1,0.99,1,0,0,-15.7,-10.2,
C=C1CC1C(=O)NC(C)c1ccc(S(=O)(=O)NC)cc1 (stereo not drawn),1,1,0,0,-0.972,-2.67,
O=C(NCC(O)Cn1ccnn1)c1ccccc1OC1CCC1 (stereo not drawn),1,1,0,0,2.04,-1.11,
O=C(CCl)N1CC2CC1CN2Cc1cccc(Cl)c1 (stereo not drawn),0.99,1,100,100,72.7,82.2,655
C=CC(=O)N(c1cc(C(C)(C)C)on1)C(C(=O)NC(C)(C)C)c1cccnc1 (stereo not drawn),0.98,0.91,28.7,,16.1,7.86,
Cc1ccncc1NC(=O)CCc1nc2cc(Cl)ccc2o1,0.99,1,,0,13.1,10.4,
O=C(NCc1cnn2ccccc12)c1cccnc1OCCO,1,1.01,0,0,-28.9,-18.2,
Cc1ccncc1NC(=O)[C@@H]1C[C@H]1CF (stereo in doubt),1,1,,3.35,3.57,4.1,
O=C(Nc1nc2ccc(F)cn2n1)C1CCOc2ccc(Cl)cc21 (stereo not drawn),1,0.99,,0,7.58,-28.5,
O=C(c1cc(=O)[nH]c2ccc(F)cc12)N1CCN(S(=O)(=O)c2ccccc2)CC1,0.98,0.98,,16.2,11.9,3.84,
CC1(C)Cc2cccc(OCCNC(=O)c3cc(=O)[nH]c4cc(F)ccc34)c2O1,0.97,0.97,,13.8,69.9,36.7,
O=S(=O)(NCCc1ccccc1)c1ccoc1,1,1,0,16.5,-24.5,,
C=CC(=O)N1CCN(S(=O)(=O)c2ccccc2-c2ccc(Nc3ccc(C#N)cn3)cc2)CC1,0.75,0.61,,0,-6.3,-11.3,
Cc1nnn(NC(=O)Cc2cccc(Cl)c2)c1C,1,1.01,,28.7,70.4,39.6,73400
CCN1CCN(Cc2ccccc2CNC(=O)[C@@]2(C)CCN2C(=O)OC(C)(C)C)CC1 (stereo in doubt),1,1,,13.2,-0.697,-6.3,

SMILES,relative solubility at 20 uM,relative solubility at 100 uM,inhibition ([1]; 20.0 µM) [%],inhibition ([1]; 50.0 µM) [%],inhibition ([2]; 50.0 µM) [%],inhibition ([2]; 20.0 µM) [%],IC50 [1] [nM]
Cc1ccn(CC(=O)NCc2nccn2CCc2ccccc2)c(=O)c1,1,1,,0,-2.52,-14.1,
CCNc1ncc(C#N)cc1CN1CCN(C(=O)CCl)CC1,0.98,0.95,,99.7,102,99.7,1640
O=C(Nc1cccnc1)Nc1cccc(Cl)c1,0.98,0.99,,44.1,30.9,12.9,
NS(=O)(=O)c1ccc(N2CCC(CN3CCCCC3)CC2)cc1,1,1.01,,22.7,-2.58,-23.1,
Cc1cccc(NC(=O)C(C#N)C(=O)CC(C)C)c1 (stereo not drawn),1,1,0,0,-0.258,,
CCCN(CC1COc2ccccc2O1)C(=O)c1cc(=O)[nH]c2ccc(Cl)cc12 (stereo not drawn),0.98,0.89,,0,-15.6,-8.21,
CS(=O)(=O)N1CCN(C(=O)CCl)CC1c1ccccc1 (stereo not drawn),1,1,87.5,95.9,69.5,64.6,3310
Nc1ncc(S(=O)(=O)NCc2cccc(Cl)c2)cn1,1,0.97,,6.76,-6.16,5.4,
N#Cc1cccc(NC(=O)Nc2cncc(N)c2)c1,1,1,9.09,48.4,57.2,,
CC(C)CCNC(=O)C(CC(C)C)NC(=O)C1OC1C(=O)O (stereo not drawn),1,1,,0,-2.95,0.736,
C=CC(=O)N1CCCC(N(CC2CCCCC2)C2CCC(O)CC2)C1 (stereo not drawn),1,1,,0,-0.824,-4.47,
O=C(c1cc(=O)[nH]c2ccc(F)cc12)N1CCN(S(=O)(=O)c2ccccc2Cl)CC1,0.98,0.93,,39.8,35.1,19.5,
O=C(CCl)N1CCN(Cc2cccc3ccccc23)CC1,0.99,0.98,100,100,98.6,,900
Cc1cc(C)c(C)c(S(=O)(=O)N2CCN(C(=O)c3cc[nH]c(=O)c3)CC2)c1C,0.99,0.98,,0,5.56,-1.5,
CCCSCC(=O)C(C#N)C(=O)Nc1ccccc1F (stereo not drawn),1,1,0.68,2.12,-9.47,,
CC(=O)N[C@@H](Cc1ccc(O)cc1)C(=O)NC(CN1CCN(C(=O)CCl)CC1)c1ccccc1 (stereo in doubt),0.99,1,,31.1,41.2,21.3,
NC1=Nc2nc3ccccc3n2C(c2ccc(-c3nc4ccccc4s3)o2)N1 (stereo not drawn),0.53,0.23,,38.8,-3.34,-25.2,
C=CC(=O)N(c1ccc(C(C)(C)C)cc1)C(C(=O)NC(C)(C)C)c1cccnc1 (stereo not drawn),0.96,0.89,0,16.1,27.2,12.7,
CC(CCc1ccccc1)N1CCN(C(=O)CCl)CC1 (stereo not drawn),1,1,62.6,91.1,60.7,45,13600
N#Cc1cncc(NC(=O)Nc2cccnc2)c1,1,1,,17.4,17.1,7.07,
Cc1ccccc1C(C(=O)NCC(O)Cn1ccnn1)c1ccccc1 (stereo not drawn),1,1.01,0,,4.24,0.424,
O=C(NCc1coc2ccccc12)C1CCc2nnc(-c3ccc(O)cc3)n2C1 (stereo not drawn),0.89,0.94,,55.3,2.5,-9.94,
C=CC(=O)N(c1ccc(N2CCC2)cc1)C(C(=O)NC(C)(C)C)c1cccnc1 (stereo not drawn),0.97,0.93,0,,-17.3,-18.5,
N#Cc1ccnc(CNC(=O)Cc2c[nH]c3ncccc23)c1,0.97,0.98,0,,-17.2,-23.2,
CCc1nnnn1-c1ccccc1NC(=O)C1(c2cncc(Br)c2)CC1,1,1,0,0,10.2,,

SMILES,relative solubility at 20 uM,relative solubility at 100 uM,inhibition ([1]; 20.0 µM) [%],inhibition ([1]; 50.0 µM) [%],inhibition ([2]; 50.0 µM) [%],inhibition ([2]; 20.0 µM) [%],IC50 [1] [nM]
Cc1cccc(-c2nnnn2C2CC2C)c1NC(=O)CCc1cccnc1 (stereo not drawn),1,1,0,13.5,-16.5,,
C=CC(=O)N(c1ccc2ncsc2c1)C(C(=O)NC(C)(C)C)c1cccnc1 (stereo not drawn),1,1,0,,0.772,9.29,
NS(=O)(=O)c1ccc2c(c1)C(=O)C(=O)N2,1.01,1,,37.1,-3.21,-2.6,
Cc1ccncc1NC(=O)C(C)CC1CC1 (stereo not drawn),1,1,,0,2.12,-2.37,
Cc1ccncc1NC(=O)Cc1cccc(F)c1,1.01,1,,40.9,65.3,39.6,
Cc1cccc(NC2CCN(c3ccc(S(N)(=O)=O)cc3)CC2)c1,0.96,0.87,39.4,45.9,-0.838,-2.59,
O=C(CCc1cnn[nH]1)NC(Cn1cccn1)c1ccccc1 (stereo not drawn),1,1,0,0,-1.11,-1.52,
CC(NC(=O)CCl)c1cc(Cl)cc(-c2ccc(S(N)(=O)=O)cc2)c1 (stereo not drawn),0.99,0.99,,79,94.6,98.4,526
Cc1csc(C(=O)N/N=C/c2cccnc2)c1N,0.99,0.93,,-6.32,-19.8,-0.86,
C=CC(=O)N(c1ccc(SC)cc1)C(C(=O)Nc1c(C)cccc1CC)c1cccnc1 (stereo not drawn),0.85,0.67,0,,24.5,11.1,
CC(Cl)C(=O)N1CCC(C(=O)N2CCCCC2)CC1 (stereo not drawn),0.99,1,0,0,-27,-11.9,
NC(=O)C1CCN(c2nnc(C3CCC(=O)N3)n2CCc2cc(F)cc(F)c2)CC1 (stereo not drawn),1,1,,0,3.83,1.27,
COc1cccc2c1OCC(NC(=O)c1cc(=O)[nH]c3cc(F)ccc13)C2 (stereo not drawn),0.9,0.86,,0,-0.175,-1.01,
Cc1cnc(CC(=O)Nc2cccnc2)o1,0.99,1,0,0,-9.91,,
CCS(=O)(=O)N1CCC(C(=O)Nc2cc(Cl)ccc2O)CC1,1,1,,0,-2.7,-1.05,
O=C1/C(=C/c2ccc(O)cc2)c2ccccc2C(=O)N1Cc1ccc2c(c1)OCO2,0.62,0.48,,20.1,-3.72,6.21,
C=CC(=O)N(c1ccc(N(C)C)c(C)c1)C(C(=O)Nc1ccc(OC)cc1C)c1cccnc1 (stereo not drawn),0.87,0.83,0,,7.01,2.51,
C=CC(=O)N(c1ccc2ncsc2c1)C(C(=O)Nc1ccc(Cl)cc1)c1cccnc1 (stereo not drawn),0.87,0.69,2.57,,25.3,8.95,
CCO[C@@H]1C[C@H]1C(=O)Nc1cnccc1C (stereo in doubt),1,1,,0,-3.45,-4.13,
C=CC(=O)N(c1ccc(C(F)(F)F)cc1)C(C(=O)Nc1ccc(OC)cc1C)c1cccnc1 (stereo not drawn),0.95,0.62,11,,25.4,7.06,
Cc1ncncc1NC(=O)Nc1ccccc1,0.99,0.99,6.04,20.1,-0.628,-2.06,
CN(CCNC(=O)c1cc(=O)[nH]c2ccccc12)c1ccccc1,0.91,0.77,,8.3,19.2,-2.32,
CC1CN(Cc2cccc(Cl)c2)CCN1C(=O)CCl (stereo not drawn),0.99,0.99,94.6,100,93.9,88.3,2080
N#Cc1ccc(S(=O)(=O)N2CCN(C(=O)c3cc(=O)[nH]c4cc(F)ccc34)CC2)cc1,0.94,0.94,,0.23,39.9,6.9,
C=CC(=O)N(c1ccc(C(C)(C)C)cc1)C(C(=O)N[C@H]1CC[C@@H](C(=O)OC)C1)c1cccnc1 (stereo in doubt),1,0.98,0,6.96,22.2,7.31,
